Experimental data published in patent US11548893B2 (priority 2017, dated 2023).
Read-outs that look alike come from different tables or passages of the source.

What was measured:
[1] = system: EBOV (mucin-deleted glycoprotein, VSV pseudotype); assay: microbe, parasite or virus in culture; format: cell-based, Zaire ebolavirus; details: read-out: EC50 Pseudotype Assays EBOV
[2] = system: EBOV_FL: full-length Ebola Zaire GP (VSV pseudotype); assay: microbe, parasite or virus in culture; format: cell-based, Zaire ebolavirus; details: read-out: EC50 Pseudotype Assays EBOV_FL
[3] = system: BDBV (mucin-deleted glycoprotein, VSV pseudotype); assay: microbe, parasite or virus in culture; format: cell-based, Bundibugyo ebolavirus; details: read-out: EC50 Pseudotype Assays BDBV
[4] = system: SUDV (glycoprotein, VSV pseudotype); assay: microbe, parasite or virus in culture; format: cell-based, Sudan ebolavirus; details: read-out: EC50 Pseudotype Assays SUDV
[5] = system: MARV (full-length glycoprotein, VSV pseudotype); assay: microbe, parasite or virus in culture; format: cell-based, Marburg marburgvirus; details: read-out: EC50 Pseudotype Assays MARV
Vero cells = details: African green monkey
Ebola Zaire [6] = system: Ebola Zaire
Ebola Zaire [7] = system: Ebola Zaire; remark: listed apart in the source
Sudan Gulu [8] = system: Sudan Gulu
[9] = microsomes, 1 h
[10] = microsomes, 1 h; remark: listed apart in the source
[11] = microsomes, 1 h; remark: listed apart in the source
in vitro [12] = details: African green monkey, Cytotox CC50
Sudan Gulu [13] = assay: organism not typed; details: HeLa, read-out: Sudan Gulu EC50
Ebola Zaire [14] = assay: microbe, parasite or virus in culture; details: Zaire ebolavirus, HeLa, read-out: Ebola Zaire EC50
Ebola Zaire [15] = assay: microbe, parasite or virus in culture; details: Zaire ebolavirus, read-out: Ebola Zaire EC90
Ebola Zaire [16] = system: Ebola Zaire; remark: listed apart in the source
Ebola Zaire [17] = assay: microbe, parasite or virus in culture; details: Zaire ebolavirus, read-out: Ebola Zaire EC50
[18] = system: VSV (native full-length glycoprotein); assay: microbe, parasite or virus in culture; format: cell-based; details: Vesicular stomatitis virus, Vero, read-out: EC50 Pseudotype Assays VSV
EBOV (Mayinga) = assay: microbe, parasite or virus in culture; format: cell-based, Ebola virus; details: for EC50: Zaire ebolavirus, Vero
Cyp-p450 1A2 = Cyp-p450 1A2 (Homo sapiens, UniProt P05177)
Cyp-p450 2B6 = Cyp-p450 2B6 (Homo sapiens, UniProt P20813)
Cyp-p450 2C9 = Cyp-p450 2C9 (Homo sapiens, UniProt P11712)
Cyp-p450 2C19 = Cyp-p450 2C19 (Homo sapiens, UniProt P33261)
Cyp-p450 2D6 = Cyp-p450 2D6 (Homo sapiens, UniProt P10635)
Cyp-p450 3A4 = Cyp-p450 3A4 (Homo sapiens, UniProt P08684)
[19] = pH 7
P-gp = P-gp (Homo sapiens, UniProt P08183)
[20] = mouse, in vivo
in vivo = details: male, CD-1, mouse
in vitro [21] = details: African green monkey
physchem = details: pH 7, kinetic from dmso stock
in vitro [22] = details: human, Caco-2
in vitro [23] = details: human
in vitro [24] = details: mouse
hERG ion channel = hERG ion channel (Homo sapiens, UniProt Q12809); assay: biochemical
[25] = microsomes, 1 h; remark: listed apart in the source
Sudan Gulu [26] = assay: organism not typed; details: read-out: Sudan Gulu EC50
native EBOV virus = details: read-out: published EC50 against native EBOV virus; cited from earlier work
Ebola virus infection = details: human, in vivo; cited from earlier work
[27] = in vivo, po, 150 mg/kg; cited from earlier work
[28] = human, in vivo; cited from earlier work
[29] = Vesicular stomatitis virus, Vero, 24 h

Chain of Cyp-p450 3A4 (P08684 whole entry): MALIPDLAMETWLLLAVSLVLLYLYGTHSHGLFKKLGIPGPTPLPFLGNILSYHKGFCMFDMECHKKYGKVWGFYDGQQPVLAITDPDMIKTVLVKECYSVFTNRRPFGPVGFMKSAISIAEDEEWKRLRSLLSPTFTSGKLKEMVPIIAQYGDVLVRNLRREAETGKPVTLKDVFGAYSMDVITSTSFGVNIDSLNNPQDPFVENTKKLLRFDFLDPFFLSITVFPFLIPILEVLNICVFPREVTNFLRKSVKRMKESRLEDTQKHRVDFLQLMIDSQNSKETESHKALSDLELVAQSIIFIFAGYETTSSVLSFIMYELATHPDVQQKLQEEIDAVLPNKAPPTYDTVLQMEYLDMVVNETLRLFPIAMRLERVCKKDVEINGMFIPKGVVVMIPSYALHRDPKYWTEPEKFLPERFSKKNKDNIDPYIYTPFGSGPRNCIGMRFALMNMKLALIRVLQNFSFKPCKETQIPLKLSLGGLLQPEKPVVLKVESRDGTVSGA
Chain of P-gp (P08183 whole entry): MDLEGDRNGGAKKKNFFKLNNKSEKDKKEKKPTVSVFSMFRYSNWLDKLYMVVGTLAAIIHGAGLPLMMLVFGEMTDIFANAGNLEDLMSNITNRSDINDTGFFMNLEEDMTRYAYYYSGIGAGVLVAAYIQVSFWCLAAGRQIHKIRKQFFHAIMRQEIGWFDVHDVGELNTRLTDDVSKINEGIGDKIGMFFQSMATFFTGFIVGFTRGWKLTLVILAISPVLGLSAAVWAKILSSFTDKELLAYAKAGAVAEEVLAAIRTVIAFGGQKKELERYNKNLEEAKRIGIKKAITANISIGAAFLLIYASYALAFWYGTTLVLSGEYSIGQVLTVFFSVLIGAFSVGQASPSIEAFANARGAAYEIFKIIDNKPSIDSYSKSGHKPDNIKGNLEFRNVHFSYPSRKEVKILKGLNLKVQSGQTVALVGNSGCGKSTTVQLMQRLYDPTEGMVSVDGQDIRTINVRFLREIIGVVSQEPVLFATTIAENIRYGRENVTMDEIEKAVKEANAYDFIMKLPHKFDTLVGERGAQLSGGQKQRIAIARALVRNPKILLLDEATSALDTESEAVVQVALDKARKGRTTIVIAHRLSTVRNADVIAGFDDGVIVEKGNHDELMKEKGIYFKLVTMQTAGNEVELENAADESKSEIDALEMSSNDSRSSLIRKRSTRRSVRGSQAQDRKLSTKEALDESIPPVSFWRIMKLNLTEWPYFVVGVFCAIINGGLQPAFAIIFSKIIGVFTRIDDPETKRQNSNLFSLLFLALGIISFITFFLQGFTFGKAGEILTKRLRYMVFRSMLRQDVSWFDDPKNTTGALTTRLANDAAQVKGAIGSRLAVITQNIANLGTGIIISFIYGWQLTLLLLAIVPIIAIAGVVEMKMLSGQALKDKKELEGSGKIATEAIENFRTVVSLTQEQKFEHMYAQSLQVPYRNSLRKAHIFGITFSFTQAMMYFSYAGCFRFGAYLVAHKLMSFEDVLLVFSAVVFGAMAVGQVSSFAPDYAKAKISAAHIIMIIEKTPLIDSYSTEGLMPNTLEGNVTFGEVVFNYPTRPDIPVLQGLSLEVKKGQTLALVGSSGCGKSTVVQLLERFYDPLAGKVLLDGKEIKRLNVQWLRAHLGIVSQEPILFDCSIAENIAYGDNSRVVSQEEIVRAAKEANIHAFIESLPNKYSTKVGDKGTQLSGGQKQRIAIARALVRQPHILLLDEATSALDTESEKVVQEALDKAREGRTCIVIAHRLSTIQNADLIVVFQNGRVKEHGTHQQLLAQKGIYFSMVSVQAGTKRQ
Chain of Cyp-p450 2C19 (P33261 whole entry): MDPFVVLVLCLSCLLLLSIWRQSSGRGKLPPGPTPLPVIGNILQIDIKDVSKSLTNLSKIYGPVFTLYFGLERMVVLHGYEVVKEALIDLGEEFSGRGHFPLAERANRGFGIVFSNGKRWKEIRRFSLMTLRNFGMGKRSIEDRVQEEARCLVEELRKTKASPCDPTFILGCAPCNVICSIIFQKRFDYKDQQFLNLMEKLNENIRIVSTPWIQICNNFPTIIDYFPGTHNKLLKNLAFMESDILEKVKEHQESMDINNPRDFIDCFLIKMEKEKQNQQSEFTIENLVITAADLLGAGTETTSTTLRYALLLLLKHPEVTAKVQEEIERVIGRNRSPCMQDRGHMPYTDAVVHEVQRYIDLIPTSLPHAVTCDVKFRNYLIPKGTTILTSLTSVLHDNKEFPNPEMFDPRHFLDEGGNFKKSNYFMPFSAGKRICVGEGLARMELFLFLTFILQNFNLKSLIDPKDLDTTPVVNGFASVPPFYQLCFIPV
Chain of Cyp-p450 2D6 (P10635 whole entry): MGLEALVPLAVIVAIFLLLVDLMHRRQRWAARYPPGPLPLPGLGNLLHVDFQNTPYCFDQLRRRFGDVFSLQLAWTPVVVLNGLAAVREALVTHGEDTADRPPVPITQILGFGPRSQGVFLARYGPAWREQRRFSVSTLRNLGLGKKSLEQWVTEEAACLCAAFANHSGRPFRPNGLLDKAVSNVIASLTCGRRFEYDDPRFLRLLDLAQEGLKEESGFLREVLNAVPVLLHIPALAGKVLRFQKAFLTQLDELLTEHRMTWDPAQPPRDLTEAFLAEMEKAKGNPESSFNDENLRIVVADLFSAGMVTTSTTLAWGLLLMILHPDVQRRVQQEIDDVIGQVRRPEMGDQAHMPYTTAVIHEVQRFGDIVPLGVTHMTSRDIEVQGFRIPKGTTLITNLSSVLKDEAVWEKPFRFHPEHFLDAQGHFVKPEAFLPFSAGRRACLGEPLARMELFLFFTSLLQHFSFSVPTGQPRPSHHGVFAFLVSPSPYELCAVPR
Chain of Cyp-p450 1A2 (P05177 whole entry): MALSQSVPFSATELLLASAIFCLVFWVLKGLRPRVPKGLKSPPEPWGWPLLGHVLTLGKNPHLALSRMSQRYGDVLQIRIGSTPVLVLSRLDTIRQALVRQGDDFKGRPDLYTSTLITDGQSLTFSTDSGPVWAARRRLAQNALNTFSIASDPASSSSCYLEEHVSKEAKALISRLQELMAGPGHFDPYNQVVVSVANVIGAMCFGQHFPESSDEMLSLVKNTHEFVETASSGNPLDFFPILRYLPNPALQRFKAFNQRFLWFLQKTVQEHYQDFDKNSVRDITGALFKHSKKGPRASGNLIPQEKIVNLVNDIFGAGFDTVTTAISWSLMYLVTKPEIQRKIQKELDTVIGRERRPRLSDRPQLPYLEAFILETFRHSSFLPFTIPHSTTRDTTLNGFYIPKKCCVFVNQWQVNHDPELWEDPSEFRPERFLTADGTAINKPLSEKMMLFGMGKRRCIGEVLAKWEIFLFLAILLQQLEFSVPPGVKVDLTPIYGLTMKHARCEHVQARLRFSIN
Chain of Cyp-p450 2B6 (P20813 whole entry): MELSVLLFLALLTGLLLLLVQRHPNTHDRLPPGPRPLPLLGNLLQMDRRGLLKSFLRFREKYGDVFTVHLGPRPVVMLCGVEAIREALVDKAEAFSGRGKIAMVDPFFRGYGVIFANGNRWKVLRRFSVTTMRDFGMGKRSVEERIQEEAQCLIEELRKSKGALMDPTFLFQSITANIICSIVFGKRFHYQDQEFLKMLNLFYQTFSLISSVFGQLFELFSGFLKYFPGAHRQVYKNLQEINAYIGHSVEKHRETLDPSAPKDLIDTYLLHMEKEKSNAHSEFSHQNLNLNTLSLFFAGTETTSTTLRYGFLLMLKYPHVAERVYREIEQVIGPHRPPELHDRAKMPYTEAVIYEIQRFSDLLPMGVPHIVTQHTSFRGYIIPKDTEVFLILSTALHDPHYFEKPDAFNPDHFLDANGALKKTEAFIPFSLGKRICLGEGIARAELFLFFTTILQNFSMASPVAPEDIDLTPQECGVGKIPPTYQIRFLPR
Chain of Cyp-p450 2C9 (P11712 whole entry): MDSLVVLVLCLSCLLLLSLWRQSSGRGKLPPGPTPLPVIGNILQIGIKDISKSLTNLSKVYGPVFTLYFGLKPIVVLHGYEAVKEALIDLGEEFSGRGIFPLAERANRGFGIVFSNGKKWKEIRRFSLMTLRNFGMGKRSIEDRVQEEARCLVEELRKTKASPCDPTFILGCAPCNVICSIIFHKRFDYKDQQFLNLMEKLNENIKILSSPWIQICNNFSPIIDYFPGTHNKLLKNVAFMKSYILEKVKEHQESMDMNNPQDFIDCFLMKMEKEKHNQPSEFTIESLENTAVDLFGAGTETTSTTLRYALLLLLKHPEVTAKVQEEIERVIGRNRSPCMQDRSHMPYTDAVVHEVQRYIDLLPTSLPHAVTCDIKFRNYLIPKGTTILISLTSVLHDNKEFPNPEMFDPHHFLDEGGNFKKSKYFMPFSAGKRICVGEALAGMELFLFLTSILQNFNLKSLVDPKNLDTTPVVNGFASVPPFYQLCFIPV

CCC12CC3CC(C(=O)NC4CCNCC4(C)C)(C1)CC(c1ccccc1)(C3)C2 (racemic) [Example A52]
EC50 [1]: 38 nM
EC50 [2]: 30 nM
EC50 [3]: 168 nM
EC50 [4]: 400 nM
EC50 [5]: 1.2 µM
CC50 (Vero cells): 5.7 µM

C[C@H]1C[C@@H](NC(=O)C23CC4C[C@@](C)(C2)C[C@](c2ccccc2)(C4)C3)CCN1 [Example B4]
EC50 [1]: 13 nM
EC50 [3]: 104 nM
EC50 [4]: 166 nM
EC50 [5, 29]: > 3 µM
Ebola Zaire SI (CC50/EC50) (Ebola Zaire [6]): 54
Ebola Zaire SI (CC50/EC90) (Ebola Zaire [7]): >35
Sudan Gulu SI (CC50/EC50) (Sudan Gulu [8]): 155
Liver Microsome Stability % Remaining after 60 Minutes, Human [9]: 82%
Liver Microsome Stability % Remaining after 60 Minutes, Mouse [10]: 92%
Liver Microsome Stability % Remaining after 60 Minutes, Monkey [11]: 54%
CC50 (in vitro [12]): 22.5 µM
EC50 (Sudan Gulu [13]): 150 nM
EC50 (Ebola Zaire [14]): 620 nM
EC90 (Ebola Zaire [15]): 2900 nM

CCC12CC3CC(C(=O)N4CCC(N)CC4)(C1)CC(c1ccccc1)(C3)C2 (racemic) [Example A32]
EC50 ([1]; Zaire ebolavirus, Vero, 24 h): 42 nM
EC50 ([2]; Zaire ebolavirus, Vero, 24 h): 65 nM
EC50 [3, 29]: 90 nM
EC50 [4, 29]: 215 nM
EC50 [5, 29]: 7.6 µM
Ebola Zaire SI (CC50/EC50) (Ebola Zaire [16]): 64
CC50 (in vitro [12]): 6 µM
EC50 (Ebola Zaire [17]): 1330 nM

CCC12CC3CC(C(=O)N[C@@H]4CCNC[C@H]4F)(C1)CC(c1ccccc1)(C3)C2 (mixture of isomers) [Example A18]
EC50 [1]: 200 nM
EC50 [2]: 30 nM
EC50 [3]: 203 nM
EC50 [4]: 303 nM
EC50 [5]: 3.5 µM
CC50 (Vero cells): 9.8 µM

CC12CC3CC(C(=O)N[C@H]4CC[C@@H](N)CC4)(C1)CC(c1ccccc1)(C3)C2.Cl (mixture of isomers) [Example A2]
EC50 ([1]; Zaire ebolavirus, Vero, 24 h): 20 nM
EC50 ([2]; Zaire ebolavirus, Vero, 24 h): 24 nM
EC50 [3, 29]: 90 nM
EC50 [4, 29]: 270 nM
EC50 [5, 29]: 3.1 µM
EC50 [18]: > 10 µM
SI50 (CC50/EC50) (EBOV (Mayinga)): 153
EC50 (EBOV (Mayinga)): 0.43 µM
IC50 (Cyp-p450 1A2): > 100 µM
IC50 (Cyp-p450 2B6): > 100 µM
IC50 (Cyp-p450 2C9): > 100 µM
IC50 (Cyp-p450 2C19): > 100 µM
IC50 (Cyp-p450 2D6): > 100 µM
IC50 (Cyp-p450 3A4; CYP Inhibition 3A4 (Midazolam)): > 100 µM
IC50 (Cyp-p450 3A4; CYP Inhibition 3A4 (Testosterone)): 28 µM
Turbidimetric solubility [19]: >500 µM
P-gp substrate ID Caco-2 Permeability (+Verapamil) Paap Mean A > B (P-gp): 8.47 10^−6 cm s^−1
P-gp substrate ID Caco-2 Permeability (+Verapamil) Paap Mean B > A (P-gp): 7.45 10^−6 cm s^−1
clearance [20]: less than hepatic blood flow
Vd (in vivo): 14 L/kg
bioavailability (in vivo): 72%
half-life (in vivo; 10 mg/kg): 420 min
AUC(0-inf) (in vivo; iv, 1 mg/kg): 561 ng·h/mL
AUC(0-t) (in vivo; iv, 1 mg/kg): 539 ± 23 ng·h/mL
Cmax (in vivo; iv, 1 mg/kg): 129 ± 40 ng/mL
Tmax (in vivo; iv, 1 mg/kg): 0.083 h
Vd (in vivo; iv, 1 mg/kg): 13.9 L/kg
clearance (in vivo; iv, 1 mg/kg): 29.7 mL/min/kg
half-life (in vivo; iv, 1 mg/kg): 324 min
AUC(0-inf) (in vivo; po, 10 mg/kg): 4040 ng·h/mL
AUC(0-t) (in vivo; po, 10 mg/kg): 3590 ± 576 ng·h/mL
Cmax (in vivo; po, 10 mg/kg): 239 ± 46 ng/mL
Tmax (in vivo; po, 10 mg/kg): 6 h
half-life (in vivo; po, 10 mg/kg): 426 min
CC50 (in vitro [12]): 10.1 µM
CC50 (in vitro [21]): 66 µM
solubility (physchem): > 500 µM
Papp A→B (in vitro [22]): 3.61 ×10⁻⁶ cm/s
Papp B→A (in vitro [22]): 15.6 ×10⁻⁶ cm/s
efflux ratio (in vitro [22]): 4.32
fraction unbound (in vitro [23]): 0.025
fraction unbound (in vitro [24]): 0.014
IC50 (hERG ion channel): > 10 µM

C[C@]12CC3CC(C(=O)N4CCC(N)CC4)(C1)C[C@@](c1ccccc1)(C3)C2 [Example B7]
EC50 ([1]; Zaire ebolavirus, Vero, 24 h): 45 nM
EC50 ([2]; Zaire ebolavirus, Vero, 24 h): 40 nM
EC50 [3, 29]: 72 nM
EC50 [4, 29]: 116 nM
EC50 [5, 29]: 8 µM
Liver Microsome Stability % Remaining after 60 Minutes, Human [9]: 86%
Liver Microsome Stability % Remaining after 60 Minutes, Mouse [10]: 77%
Liver Microsome Stability % Remaining after 60 Minutes, Monkey [11]: 53%
Liver Microsome Stability % Remaining after 60 Minutes, Guinea Pig [25]: 72%
CC50 (in vitro [12]): 31 µM
EC50 (Sudan Gulu [13]): 170 nM
EC50 (Sudan Gulu [26]): 360 nM
EC50 (Ebola Zaire [17]): 880 nM
EC50 (Ebola Zaire [14]): 1900 nM

NC(=O)c1nc(F)c[nH]c1=O [favipiravir, reference compound]
SI50 (CC50/EC50) (EBOV (Mayinga)): >59
EC50 (EBOV (Mayinga)): 17 µM
EC50 (native EBOV virus): 67 µM
drop in viral load (Ebola virus infection): 3-4 log
CC50 (in vitro [21]): > 1000 µM
half-life [27]: 1.8 h
half-life in humans [28]: 1 to 4 h

C[C@H]1C[C@@H](NC(=O)C23CC4C[C@@](C)(C2)C[C@](c2ccccc2)(C4)C3)CCN1 [Example B15]
EC50 [1]: 35 nM
EC50 [3]: 210 nM
EC50 [4]: 610 nM
CC50 (Vero cells): 14.8 µM

C[C@@]12CC3CC(C(=O)NC4CCNCC4)(CC(c4ccccc4)(C3)C1)C2 [Example B1]
EC50 ([1]; Zaire ebolavirus, Vero, 24 h): 34 nM
EC50 ([2]; Zaire ebolavirus, Vero, 24 h): 10 nM
EC50 [3, 29]: 238 nM
EC50 [4, 29]: 250 nM
EC50 [5, 29]: > 3 µM
Ebola Zaire SI (CC50/EC50) (Ebola Zaire [6]): 51
Ebola Zaire SI (CC50/EC90) (Ebola Zaire [7]): >48
Sudan Gulu SI (CC50/EC50) (Sudan Gulu [8]): 285
Liver Microsome Stability % Remaining after 60 Minutes, Human [9]: 81%
Liver Microsome Stability % Remaining after 60 Minutes, Mouse [10]: 87%
Liver Microsome Stability % Remaining after 60 Minutes, Monkey [11]: 83%
CC50 (in vitro [12]): 12.3 µM
EC50 (Sudan Gulu [13]): 120 nM
EC50 (Ebola Zaire [17]): > 3200 nM
EC50 (Ebola Zaire [14]): 640 nM
EC90 (Ebola Zaire [15]): 2100 nM
